Measurements reported in ChEMBL document CHEMBL3421609, “Sandensone A, a novel sesquiterpenoid from the Formosan soft coral Sinularia sandensis” (2015).
Active and inactive are the calls of the source. The rule behind the calls is not given here.

Assays:
HT-29 = test: Cytotoxicity against human HT-29 cells by MTT assay; format: functional; conditions: read-out: ED50 (the source's name)
Human betaherpesvirus 5 [1] = test: Antiviral activity against human cytomegalovirus infected in HEL cells assessed as reduction in virus replication at 1 ug/ml; format: functional, organism-based
Human betaherpesvirus 5 [2] = test: Antiviral activity against human cytomegalovirus infected in HEL cells assessed as reduction in virus replication; format: functional; conditions: Human betaherpesvirus 5, HEL; read-out: ED50 (the source's name)
P388 = test: Cytotoxicity against mouse P388 cells by MTT assay; format: functional; conditions: read-out: ED50 (the source's name)
A549 = test: Cytotoxicity against human A549 cells by MTT assay; format: functional; conditions: read-out: ED50 (the source's name)

| SMILES | EC50 (HT-29) | Activity (Human betaherpesvirus 5 [1]) | EC50 (Human betaherpesvirus 5 [2]) | EC50 (P388) | EC50 (A549) |
| --- | --- | --- | --- | --- | --- |
| C=C/C(C)=C/C/C=C(\C)[C@H]1C(=O)C=C(C)[C@@H]1O | 38000 nM | inactive | > 50 µg/mL | 22000 nM | > 50000 nM |
| CO[C@H](C(=O)[C@@H](O)[C@@H](C)O)[C@@H]1Cc2cc3cc(O[C@H]4C[C@@H](O[C@@H]5C[C@@H](O)[C@H](O)[C@@H](C)O5)[C@H](O)[C@@H](C)O4)c(C)c(O)c3c(O)c2C(=O)[C@H]1O[C@H]1C[C@@H](O[C@@H]2C[C@@H](O)[C@@H](O[C@@H]3C[C@](C)(O)[C@H](O)[C@@H](C)O3)[C@@H](C)O2)[C@H](O)[C@@H](C)O1 [PLICAMYCIN] | 70 nM | – | – | 50 nM | 60 nM |
